This is an account of results in patent publication US5665735A, “Unbridged bis-aryl carbinol derivatives compositions and methods of use” (Schering Corporation, priority 1995, dated 1997).

Molecules are shown by their SMILES. Where two headings read alike, the source gives them in different places.

In test [1] the test system is PAF-induced platelet aggregation. Briefly: Platelet aggregation assay: inhibition of platelet aggregation induced by PAF (in vitro). The conditions noted are these: Homo sapiens; for inhibition at 0.5 µM: concentration 0.5 μM; for inhibition at 5 µM: concentration 5 μM; for inhibition at 50 µM: concentration 50 μM; for inhibition at 2.5 µM: concentration 2.5 μM; for IC50: read-out: PAF antagonism (in vitro) IC50; for inhibition at 0.12 µM: concentration 0.12 μM; for inhibition at 0.25 µM: concentration 0.25 μM; for inhibition at 0.125 µM: concentration 0.125 μM. In kind it is cell-based. The protocol:
A. In Vitro Studies--Platelet Aggregation Assay
Platelet-activating factor (PAF) causes aggregation of platelets by a receptor-mediated mechanism. Therefore, PAF-induced platelet aggregation provides a simple and convenient assay to screen compounds for PAF antagonism.
Blood was centrifuged at 110×g for 15 min. and the supernatant platelet-rich plasma (PRP) carefully transferred into a polypropylene tube. Platelet-poor-plasma (PPP) was prepared by centrifuging PRP at 12,000×g for 2 min. PRP was used within 3 hr. of drawing the blood.
PAF was dissolved in chloroform:methanol (1:1, v/v) at a concentration of 2 mg/mL and stored at -70° C. An aliquot of this solution was transferred to a polypropylene tube and […] under a flow of nitrogen gas. […] The solution was sonicated for 5 min. This stock solution was further diluted to appropriate concentrations in Hepes-saline-BSA buffer. Collagen and adenosine diphosphate (ADP) were purchased as solutions. Test compounds were initially dissolved in dimethyl sulfoxide (DMSO) at a concentration of 50 mM and then further diluted in Hepes-saline-BSA buffer to achieve appropriate concentrations.
When an aggregating agent such as PAF is added to PRP, platelets aggregate. An aggregometer quantifies this aggregation by measuring and comparing light (infra-red) transmission through PPP and PRP. Aggregation assays were performed using a dual-channel aggregometer. PRP (0.45 ml) in aggregometer cuvettes was continually stirred (37° C.). Solutions (50 μL) of test compounds or vehicle were added to the PRP and, after incubation for 2 min., 10-15 μL aliquots of PAF solution were added to achieve a final concentration of 1-5×10^-8 M. In different experiments the aggregatory response was kept within a set limit by varying the concentration of PAF. Incubations were continued until the increase in light transmission reached a maximum (usually 2 min.). This increase in light transmission reflecting platelet aggregation is transmitted to a computer. The computer calculates the slope of transmission change, thus providing the rate of aggregation. Values for inhibition were calculated by comparing rates of aggregation obtained in the absence and the presence of the compound. For each experiment, a standard PAF antagonist such as 8-chloro-6,11-dihydro-11-(1-acetyl-4-piperidylidene)-5H-benzo[5,6]cyclohepta[1,2-b]pyridine was used as a positive control.
Compounds that inhibit PAF-induced aggregation were tested against several other aggregating agents including collagen (0.2 mg/ml) and ADP (2 μM).

In a further test the test system is PAF-induced bronchospasm. Put plainly: Agonist-induced bronchospasm in guinea pigs, PAF (in vivo, oral). Set-up: species or system guinea pig (male Hartley). The procedure: (§1) In Vivo Studies: Agonist-Induced Responses--Spasmogen-Induced Bronchospasm in Guinea Pigs
(§2) Male Hartley guinea pigs (450-550 g) were obtained from Charles River Breeding Laboratories. The animals were fasted overnight and the following day were anesthetized with 0.9 mL/kg i.p. of dilaurethane (containing 0.1 g/mL diallylbarbituric acid, 0.4 g/ml ethylurea and 0.4 g/ml urethane). The left jugular vein was cannulated for the administration of compounds. The trachea was cannulated and the animals were ventilated by a rodent respirator at 55 strokes/min. with a stroke volume of 4 mL. A side arm to the tracheal cannula was connected to a pressure transducer to obtain a continuous measure of inflation pressure. Bronchoconstriction was measured as the percent increase in inflation pressure that peaked within 5 min. after challenge with spasmogen. […] Each animal was challenged with only a single spasmogen. The effect of a compound on the bronchospasm is expressed as a percent inhibition of the increase in inflation pressure compared to the, increase in a control group.

Test [2] deals with histamine-induced bronchospasm. Put plainly: Agonist-induced bronchospasm in guinea pigs, histamine (in vivo, oral). Set-up: species or system guinea pig (male Hartley). The procedure:
as §1, §2

As usually defined, the inhibition is the share of the control response that was lost under treatment. Lower therefore signals little suppression. On to `[O-][n+]1ccc(CN2CCC(C(O)(c3ccc(Cl)cc3)c3nccs3)CC2)cc1` (centres unmarked) [Formula 1.0A11], for which, in test [1], the inhibition at 0.5 µM turned out to be 7%, 5 µM produced 76% inhibition and at 50 µM the inhibition was 83%.

In test [1], `O=C(c1cc[n+]([O-])cc1)N1CCC(C(O)(c2ccc(Cl)cc2)c2cccs2)CC1` (centres unmarked) [Formula 1.0A8] gave an inhibition at 0.5 µM of 74%, an inhibition at 2.5 µM of 55%, an inhibition at 5 µM of 100% and an inhibition at 50 µM of 89%. Besides, at 1.25 µM the inhibition in test [1] (concentration 1.25 μM) was 26%. Further, the “PAF agonist bronchospasm % inhibition” value in the test with PAF-induced bronchospasm (3 mg/kg) is given as 0%.

In the case of `O=C(c1cc[n+]([O-])cc1)N1CCC(=C2c3ccc(Cl)cc3CCc3cccnc32)CC1` [Compound C, reference compound], the “PAF agonist bronchospasm % inhibition (duration)” value in the test on PAF-induced bronchospasm (5 mg/kg, time 4 (unit not given)) came out at 37%; in the test on PAF-induced bronchospasm (5 mg/kg, time 8 (unit not given)) it was 12%.

Broadly, the IC50 is the point on the concentration scale where inhibition reaches its midpoint. As to `CC(=O)N1CCC(=C2c3ccc(Cl)cc3CCc3cccnc32)CC1` [Compound B, reference compound], the IC50 in test [1] (in vitro, known compounds, for purposes of comparison) is 610 nM. Moreover, the “PAF agonist bronchospasm % inhibition” value with PAF-induced bronchospasm (3 mg/kg) is 4%. Besides, in test [2] (3 mg/kg), the “Histamine agonist bronchospasm % inhibition” value worked out at 48%.

In test [1], `O=C(c1cc[n+]([O-])cc1)N1CCC(C(O)(c2ccccn2)c2ccccn2)CC1` [Formula 1.0A1] gave an inhibition at 0.12 µM of 28%, an inhibition at 0.25 µM of 68% and an inhibition at 0.5 µM of 97%. For the same molecule, the “PAF agonist bronchospasm % inhibition” value in the test with PAF-induced bronchospasm (3 mg/kg) is given as 93%.

For the molecule `[O-][n+]1ccc(CN2CCC(C(O)(c3ccccc3)c3cccs3)CC2)cc1` (centres unmarked) [Formula 1.0A5], in test [1], the inhibition at 0.12 µM was 35%, the inhibition at 0.25 µM is 41%, the inhibition at 0.5 µM is 59% and the inhibition at 2.5 µM amounted to 91%. Also, the inhibition at 1.2 µM in test [1] (concentration 1.2 μM) is 81%. Further, in the test on PAF-induced bronchospasm (3 mg/kg), the “PAF agonist bronchospasm % inhibition” value is recorded as 20%.

In test [1], `O=C(c1cc[n+]([O-])cc1)N1CCC(C(O)(c2ccccn2)c2nccs2)CC1` (centres unmarked) [Formula 1.0A12] yielded an inhibition at 0.25 µM of 47%, an inhibition at 0.5 µM of 58%, an inhibition at 5 µM of 98% and an inhibition at 50 µM of 100%.

In test [1], `O=C(c1cc[n+]([O-])cc1)N1CCC(C(O)(c2ccc(Cl)cc2)c2nccs2)CC1` (stereo not drawn) [Formula 1.0A10, α-(4-chlorophenyl)-1-(4-pyridinylcarbonyl)-α-(2-thiazolyl)-4-piperidinemethanol N^1-oxide] yielded an inhibition at 0.125 µM of 52%, an inhibition at 0.25 µM of 67%, an inhibition at 0.5 µM of 88% and an inhibition at 5 µM of 92%. This molecule yielded an inhibition at 50 µM in test [1] of 86%. In addition, the “PAF agonist bronchospasm % inhibition” value in the test on PAF-induced bronchospasm (3 mg/kg) is 93%. In addition, the “PAF agonist bronchospasm % inhibition (duration)” value with PAF-induced bronchospasm (4 mg/kg, time 6 (unit not given)) stood at 99%. Besides, the “Histamine agonist bronchospasm % inhibition” value in test [2] (10 mg/kg) is on record as 12%.

For the molecule `[O-][n+]1ccc(CN2CCC(C(O)(c3ccc(Cl)cc3)c3cccs3)CC2)cc1` (centres unmarked) [Formula 1.0A9], in test [1], at 5 µM the inhibition was 24% and at 50 µM the inhibition was 100%.

As for `CCOC(=O)N1CCC(=C2c3ccc(Cl)cc3CCc3cccnc32)CC1` [Compound A, reference compound], in test [1], the half-maximal inhibitory concentration (IC50) is over 50000 nM. In addition, in the test on PAF-induced bronchospasm (10 mg/kg), the “PAF agonist bronchospasm % inhibition” value is under 50%. Besides, the “Histamine agonist bronchospasm % inhibition” value in test [2] (1 mg/kg) is listed as over 50%.

For the molecule `O=C(c1cc[n+]([O-])cc1)N1CCC(C(O)(c2ccc(Cl)cc2)c2ccccn2)CC1` (centres unmarked) [Formula 1.0A3], in test [1] (concentration 0.063 μM), at 0.063 µM the inhibition was 41%. In test [1], this molecule had an inhibition at 0.125 µM of 53%, an inhibition at 0.25 µM of 69%, an inhibition at 0.5 µM of 88% and an inhibition at 5 µM of 95%. The inhibition at 50 µM in test [1] amounted to 92%. The “PAF agonist bronchospasm % inhibition” value with PAF-induced bronchospasm (3 mg/kg) is 87%.

Regarding `CC(=O)N1CCC(=C2c3ccc(Cl)cc3CCc3cccnc32)CC1` [Compound D, reference compound], the “PAF agonist bronchospasm % inhibition (duration)” value is recorded as 61% in the test on PAF-induced bronchospasm (15 mg/kg, time 4 (unit not given)) and 32% with PAF-induced bronchospasm (15 mg/kg, time 8 (unit not given)).
